In patent US20090131481A1, “Transcription Factor Modulating Compounds and Methods of Use Thereof” (Paratek Pharmaceuticals, Inc., published 2009):
Read-outs that look alike come from different tables or passages of the source.

Legend:
SoxS = molecular target: T1, SoxS (Escherichia coli, UniProt P0A9E2); test: Chemiluminescence-based SoxS-DNA binding assay; set-up: made in house; species or system E. coli
T1 sequence (P0A9E2 1-107): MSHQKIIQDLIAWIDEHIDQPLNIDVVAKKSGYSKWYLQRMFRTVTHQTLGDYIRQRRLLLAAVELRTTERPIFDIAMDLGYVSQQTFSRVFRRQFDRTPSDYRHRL

LcrF (VirF) = LcrF (VirF) (Yersinia pestis, UniProt P28808); test: biochemical; type: binding, Y. pseudotuberculosis; conditions: EC50 for inhibition of LcrF(VirF)-DNA binding
ExsA = molecular target: T2, ExsA (Pseudomonas aeruginosa, UniProt P26993); test: Chemiluminescence-based ExsA-DNA binding assay; set-up: species or system P. aeruginosa; conditions: Table 7, cell-free system; read-out: ExsA EC50
T2 construct: made in house
T2 sequence (P26993 1-278): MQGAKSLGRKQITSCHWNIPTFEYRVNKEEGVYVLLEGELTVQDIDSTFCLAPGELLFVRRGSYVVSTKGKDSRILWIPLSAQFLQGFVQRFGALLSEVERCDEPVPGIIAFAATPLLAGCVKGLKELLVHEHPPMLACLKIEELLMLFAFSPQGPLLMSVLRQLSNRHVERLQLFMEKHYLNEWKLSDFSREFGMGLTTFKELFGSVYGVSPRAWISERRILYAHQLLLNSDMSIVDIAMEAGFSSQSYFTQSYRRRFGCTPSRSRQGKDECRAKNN

[1] = read-out: % Inhibition (SoxS binding to DNA)

Chain of LcrF (VirF) (P28808 whole entry, looked up): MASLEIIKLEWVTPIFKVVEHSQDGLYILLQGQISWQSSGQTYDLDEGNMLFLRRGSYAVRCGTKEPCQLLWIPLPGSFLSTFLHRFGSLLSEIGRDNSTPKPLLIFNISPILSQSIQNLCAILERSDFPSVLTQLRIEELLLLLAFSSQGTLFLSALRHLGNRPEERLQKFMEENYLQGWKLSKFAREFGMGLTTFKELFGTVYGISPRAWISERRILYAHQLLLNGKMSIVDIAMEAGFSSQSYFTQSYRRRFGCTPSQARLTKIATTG

Compound | inhibition at 50 µg/mL (SoxS; [1]) [%] | also measured
O=C(O)CCn1c(-c2ccccc2)nc2ccc([N+](=O)[O-])cc21 [AO] | < 0 | –
CCOC(=O)COn1c(-c2ccccc2)nc2ccc([N+](=O)[O-])cc21 [AP] | < 0 | –
O=C(O)COn1c(-c2ccccc2)nc2ccccc21 [AQ] | 0 to 29 | –
CCCOn1c(-c2ccccc2)nc2ccc([N+](=O)[O-])cc21 [AR] | < 0 | –
O=[N+]([O-])c1ccc2nc(-c3ccccc3)n(OCCO)c2c1 [AS] | < 0 | –
On1c(-c2ccccc2)nc2ccccc21 [AT] | < 0 | –
COc1ccc(-c2nc3ccc([N+](=O)[O-])cc3n2O)cc1 [AV] | 0 to 29 | –
CC(=O)c1ccc2nc(-c3ccccc3)n(O)c2c1 [AW] | 30 to 69 | –
On1c(-c2ccccc2)nc2ccc(C(F)(F)F)cc21 [AX] | 0 to 29 | –
On1c(-c2ccccc2)nc2ccc(F)cc21 [AY] | 0 to 29 | –
COc1ccc2nc(-c3ccccc3)n(O)c2c1 [AZ] | < 0 | –
O=C(Nc1ccc(-c2nc3ccc([N+](=O)[O-])cc3n2O)cc1)c1ccccc1 [A] | > 70 | EC50 (LcrF (VirF)): 10 to 25 µM; EC50 (ExsA): 10 to 25 µM
O=C(O)c1ccc2nc(-c3ccccc3)n(O)c2c1 [BA] | 0 to 29 | –
N#Cc1ccc2nc(-c3ccccc3)n(O)c2c1 [BC] | 30 to 69 | –
N#CCOn1c(-c2ccccc2)nc2ccc([N+](=O)[O-])cc21 [BD] | 0 to 29 | –
NCCOn1c(-c2ccccc2)nc2ccc([N+](=O)[O-])cc21 [BE] | < 0 | –
CN(C)c1ccc2nc(-c3ccccc3)n(O)c2c1 [BF] | 0 to 29 | –
O=[N+]([O-])c1ccc2nc(-c3ccc(O)cc3)n(O)c2c1 [BG] | 30 to 69 | –
CC(C)(C)c1ccc2nc(-c3ccccc3)n(O)c2c1 [BH] | < 0 | –
CS(=O)(=O)c1ccc2nc(-c3ccccc3)n(O)c2c1 [BI] | 30 to 69 | –
CC(=NO)c1ccc2nc(-c3ccccc3)n(O)c2c1 [BJ] | 30 to 69 | –
Nc1ccc(-c2nc3ccc([N+](=O)[O-])cc3n2O)cc1 [BL] | > 70 | –
Nc1ccccc1-c1nc2ccc([N+](=O)[O-])cc2n1O [BN] | 0 to 29 | –
Nc1cccc(-c2nc3ccc([N+](=O)[O-])cc3n2O)c1 [BO] | 30 to 69 | inhibition at 50 µg/mL (SoxS; read-out: in vitro SoxS activity: percent inhibition of DNA-protein binding): < 29%
COn1c(-c2ccccc2)nc2ccc([N+](=O)[O-])cc21 [BR] | 0 to 29 | –
